Values of other authors as cited in US6815453B1, “Cosmetic and dermatological light protection formulations having a content of triazine derivatives and glyceryl compounds” (Beiersdorf AG, priority 1996, dated 2004).

- corresponding dissolved, and therefore active, UV filter substance (corresponding to the maximum solubility in known solvents): 1-1.5 % by weight
- maximum amount of the filter dissolved by known solvents (known solvents for this UVB filter, prior-art statement): ≤ 15 % by weight
- solubility in lipids (stated in words as the main disadvantage): poor solubility in lipids
SMILES: CCCCC(CC)COC(=O)c1ccc(Nc2nc(Nc3ccc(C(=O)OCC(CC)CCCC)cc3)nc(Nc3ccc(C(=O)OCC(CC)CCCC)cc3)n2)cc1 (stereo not drawn) [UVINUL® T 150, 4,4′,4″-(1,3,5-triazine-2,4,6-triyltriimino)-trisbenzoic acid tris(2-ethylhexyl ester)]
